Assay results published in US11596615B2, “Compositions and methods for treatment of insulin resistance” (Temple University—Of The Commonwealth System Of Higher …, priority 2016, dated 2023).
Structures can show the parent of a compound that is named as a salt.

Assays:
GLUT4 = GLUT4 carbonylation in adipose tissue of HFD mice by MRM; format: in vivo, C57BL/6J mice; settings: about 10 mg/kg per day in water, two weeks, n=8, P<0.02, FIG. 8A
Text: MRM-MS is a quantitative mass spectrometry-based target technology that generates unique fragment ions associated with their corresponding precursor ions. These ions can be detected and quantified in complex matrix samples. The quantitation of peptides is obtained measuring the intensity of the fragment ions. To detect carbonylated GLUT4, specific peptides were selected. The parent ion for the carbonylated GLUT4 sequence LTGWADVSGVLAELKDEK-4HNE (SEQ ID NO:2) with triple charge mass is 696.381 m/z. After fragmentation of the parent ion, relative daughter ions: 1101.94, 788.4758, 917.5138, 988.5555, 722.4186, and 481.9482 m/z were identified and used for the quantification of the carbonylated Glut 4 peptide. […] This internal standard peptide allows a relative quantification because it is used for normalization of the intensity of each GLUT4 peptide within the same sample.
MRM analyses were performed with a DIONEX UltiMate™ 3000 SRLCnano HPLC system (Thermo Scientific) coupled to a TSQ QUANTUM™ ULTRA (Thermo Scientific) triple quadrupole. PINPOINT™ software was used for method development and the optimization of the mass spectrometer parameters, as well as for peptide quantification. […]
Thirty-two C57BL/6J mice 8-weeks old were selected and randomly separated. […] Glucose levels were measured at 20, 40, 80 and 140 minutes after glucose administration in a glucose time test (GTT). […]

[1] = test system: mice fed high fat diet (HFD); experiment: Blood glucose after glucose administration in overnourished mice (Example 10); format: in vivo, C57BL/6J mice; settings: 10 μg/mL in drinking water, FIG. 7
Text: Twenty-four C57BL/6J mice 8-weeks old were fed with either regular CHOW diet or high fat diet (HFD, 60% of fat content). Eight animals received CHOW diet for one week, 8 animals had been fed already with HFD for two weeks and were continuously fed with the same diet for one more week (for a total of 3 weeks feeding) and 8 animals started HFD at the time of the animal selection (2 weeks feeding). Each group was divided in half, 4 animals received regular water and the other 4 received the (S)-2-amino-6-((3-aminopropyl)amino)hexanoic acid dihydrochloride (10 μg/mL) dissolved in the water. Animals were fasted for 5 hours, weighed, and blood glucose measured by tail clipping. In addition, glucose (1 mg/g of body weight) was administered intraperitoneally. Additional glucose levels were measured at 20, 40 and 80 minutes after glucose administration. Heavy glucose was also administered intraperitoneally to further measure glucose uptake from tissues. Glucose level was taken again at 140 minutes. Animals were euthanized under anesthesia (isoflurane), and blood, liver, fat and muscle were collected.

3T3-L1 adipocytes = experiment: Restoring glucose uptake in insulin-stimulated 3T3-L1 cells exposed to 4-HNE and H2O2 (FIG. 13); format: cell-based, mouse; settings: 10 μM pretreatment 12 hours, then 4HNE and H2O2 4 hours
Procedure: Insulin-stimulated 3T3-L1 adipocytes were pretreated with the drug (S)-2-amino-6-((3-aminopropyl)amino)hexanoic acid dihydrochloride (10 μM) for 12 hours followed by exposure to 4HNE and H2O2 for an additional 4 hours. The amounts of glucose taken up by the 3T3-L1 adipocytes were measured by the MRM methods described above. The results in FIG. 13 show the effect of the drug in restoring glucose uptake in insulin-stimulated 3T3-L1 cells exposed to 4-HNE and H2O2: Control cells, no insulin (C− No Ins); control cells, with insulin (C+ Ins); 4HNE+H2O2-treated cells (4HNE/H2O2) and cells treated with drug+4HNE+H2O2 (“APL”).
Insulin-stimulated 3T3-L1 adipocytes were pretreated with the drug (S)-2-amino-5-((6-aminohexyl)amino)pentanoic acid dihydrochloride (10 μM) for 12 hours followed by exposure to 4HNE and H2O2 for an additional 4 hours. The amounts of glucose taken up by the 3T3-L1 adipocytes were measured by the MRM methods described above. FIG. 13 includes the results: cells treated with (S)-2-amino-5-((6-aminohexyl)amino)pentanoic acid trihydrochloride (MC-180351).
Insulin-stimulated 3T3-L1 adipocytes were pretreated with the drug (S)-2-amino-5-(([…])amino)pentanoic acid dihydrochloride (10 μM) for 12 hours followed by exposure to 4HNE and H2O2 for an additional 4 hours. The amounts of glucose taken up by the 3T3-L1 adipocytes were measured by the MRM methods described above. FIG. 13 includes the results: cells treated with (S)-2-amino-5-((5-aminopentyl)amino)pentanoic acid trihydrochloride (MC-180352).

NCCCNCCCC[C@H](N)C(=O)O [APL, (S)-2-amino-6-((3-aminopropyl)amino)hexanoic acid dihydrochloride]
reduction of GLUT4 carbonylations in adipose tissue (GLUT4): about 50%
glucose uptake impairment induced by overnutrition (blood glucose levels) [1]: effective in counteracting glucose uptake impairment induced by overnutrition
GLUT4 carbonylations (3T3-L1 adipocytes): reduce GLUT4 carbonylations
glucose uptake impairment induced by 4-HNE and H2O2 (3T3-L1 adipocytes; FIG. 13): prevent glucose uptake impairment induced by 4-HNE and H2O2
